The text below walks through data of ChEMBL document CHEMBL1201862, “PubChem BioAssay data set” (2004).

Molecules are shown by their SMILES. Activity calls are given as the source filed them.

System in one assay: not listed separately
The experiment in a line: P. falciparum Dd2 growth inhibitors, dose response, SYBR Green, cherry-picked samples (AID 1159567). The class given is functional, cell-based.
The AC50 is the concentration giving half of the maximal activity seen. `COc1ccc2c3c(n(C)c2c1)[C@H](CO)N(C(=O)c1ccccc1)CC31CCN(C(=O)c2ccccc2)CC1`: the AC50 is 7.29 µM (active). Same read-out and setting: next, `COc1ccc(S(=O)(=O)N2CC[C@@H]3[C@H]2c2cc(-c4ccc(C#N)cc4)ccc2N[C@@H]3CO)cc1`: 9.46 µM (active); `O=C(C[C@@H]1C[C@H]2c3cc(NC(=O)Nc4ccccc4)ccc3O[C@H]2[C@H](CO)O1)NCc1ccccc1`: 15.9 µM (active).

For another assay, the target named is T1, Rac GTPase-activating protein 1 (Homo sapiens, UniProt Q9H0H5).
T1 sequence (Q9H0H5 whole entry): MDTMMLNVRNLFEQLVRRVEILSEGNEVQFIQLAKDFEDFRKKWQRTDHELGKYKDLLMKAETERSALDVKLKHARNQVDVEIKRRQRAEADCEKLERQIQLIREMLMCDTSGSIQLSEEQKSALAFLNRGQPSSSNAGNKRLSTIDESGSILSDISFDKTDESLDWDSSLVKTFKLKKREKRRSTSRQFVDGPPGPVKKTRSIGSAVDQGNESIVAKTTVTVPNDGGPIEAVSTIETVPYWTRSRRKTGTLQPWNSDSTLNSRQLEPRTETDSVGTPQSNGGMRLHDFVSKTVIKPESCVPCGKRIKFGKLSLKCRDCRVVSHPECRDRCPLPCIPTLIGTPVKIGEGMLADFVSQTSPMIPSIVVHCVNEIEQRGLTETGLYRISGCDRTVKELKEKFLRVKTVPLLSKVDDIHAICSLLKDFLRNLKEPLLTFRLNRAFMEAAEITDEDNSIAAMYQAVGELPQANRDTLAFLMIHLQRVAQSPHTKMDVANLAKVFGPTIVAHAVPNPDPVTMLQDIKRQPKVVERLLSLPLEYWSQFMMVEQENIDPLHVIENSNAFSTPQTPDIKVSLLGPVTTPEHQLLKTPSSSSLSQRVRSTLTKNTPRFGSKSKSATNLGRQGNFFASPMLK
The assay can be described thus: blockers of MgcRacGAP-driven Rac1 GTP hydrolysis – biochemical, ADP Hunter fluorescence, primary and confirmatory, confirmation (AID 624330). It counts as functional.
By IC50 is commonly meant the concentration that gives 50% inhibition. As to `CC(=O)Nc1cccc2cc(O)ccc12`, the IC50 is 36.8 µM (active). Regarding `Cc1nc(Cl)cc(N/N=C/c2ccc(O)cc2O)n1`, the IC50 is 16.6 µM (active). The same measure, in the same setting: next, `CCN(CC)c1ccc(NC(=O)c2ccc(S(=O)(=O)N3CCOCC3)cc2)cc1`: 71.9 µM (active); `COc1ccc(NCc2cc(O)nc3ccccc23)cc1`: 50.5 µM (active); `COc1ccc(NCC(O)Cn2c(C)c(C)c3ccccc32)cc1` (centres undefined): 70.7 µM (active). Turning to `CCCCNCC#CCOc1cc(C)ccc1C(C)C`, the IC50 is 196 µM (active). Still for that read-out and setting: the figure for `CC(C)CN(Cc1c(O)ccc2ccccc12)CC(C)C` is 47.5 µM (active); for `Clc1ccccc1-c1nc(/C=N/N2CCOCC2)c2ccccn12` it is 33.6 µM (active).

As to `CN1CCc2c1nc1ccccc1c2NC(=O)CN1CCCC1`, the 50% inhibitory concentration (IC50) was 117 µM (active).

A further assay deals with T2, Cytochrome P450 1A2 (Homo sapiens, UniProt P05177).
T2 sequence (P05177 whole entry): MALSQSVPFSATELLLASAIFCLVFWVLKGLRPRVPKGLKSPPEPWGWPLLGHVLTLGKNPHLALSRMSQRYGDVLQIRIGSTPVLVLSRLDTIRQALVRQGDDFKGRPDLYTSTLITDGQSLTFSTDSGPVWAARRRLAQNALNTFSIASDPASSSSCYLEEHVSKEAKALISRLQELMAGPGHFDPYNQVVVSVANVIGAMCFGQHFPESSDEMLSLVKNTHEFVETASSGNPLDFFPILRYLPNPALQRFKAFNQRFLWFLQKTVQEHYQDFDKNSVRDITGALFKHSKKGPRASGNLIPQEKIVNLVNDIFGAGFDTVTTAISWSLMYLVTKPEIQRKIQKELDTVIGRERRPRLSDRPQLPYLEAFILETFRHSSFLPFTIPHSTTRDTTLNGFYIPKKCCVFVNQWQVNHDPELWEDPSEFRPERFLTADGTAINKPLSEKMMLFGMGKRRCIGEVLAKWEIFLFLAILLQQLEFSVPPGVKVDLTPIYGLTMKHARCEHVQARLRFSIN
Assay: not given
For the compound `O=c1c(-c2cccs2)nc2cnc(Nc3ccccc3)nc2n1C[C@H]1CCCO1`, the AC50 is 2.51 µM (inconclusive). `CS(=O)(=O)N1CCC2(CCCN(C(=O)Nc3ccccc3)C2)CC1`: the AC50 was 15.8 µM (inconclusive).

For `O=C(CNS(=O)(=O)c1ccc(Br)s1)N1CCC2(CC1)OCCO2`, the AC50 was 15.8 µM (inconclusive). Take `N#C/C(=C/c1ccc(N2CCCC2)c([N+](=O)[O-])c1)c1nc2ccccc2[nH]1`: the AC50 is 3.55 µM (inconclusive).

System in another assay: not listed separately
The assay can be described thus: NIH-3T3 fibroblast cytotoxicity, dose response, cytotoxicity control, cell-based, fluorescence, Alamar Blue, secondary assay (AID 2327).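 Also: NIH-3T3 mouse fibroblasts cultured with fluconazole at 8 µg/mL.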 It counts as functional.
The EC50 is the concentration giving half of the maximal effect. In the case of `CC1COc2ccccc2N1S(=O)(=O)c1ccccc1` (centres undefined), the EC50 was > 150 µM (inconclusive).

The target in another assay is Cytochrome P450 3A4 (Homo sapiens, UniProt P08684).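 Also: CYP3A4 tested as one member of a cytochrome P450 panel screen.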
Chain of Cytochrome P450 3A4 (P08684 whole entry): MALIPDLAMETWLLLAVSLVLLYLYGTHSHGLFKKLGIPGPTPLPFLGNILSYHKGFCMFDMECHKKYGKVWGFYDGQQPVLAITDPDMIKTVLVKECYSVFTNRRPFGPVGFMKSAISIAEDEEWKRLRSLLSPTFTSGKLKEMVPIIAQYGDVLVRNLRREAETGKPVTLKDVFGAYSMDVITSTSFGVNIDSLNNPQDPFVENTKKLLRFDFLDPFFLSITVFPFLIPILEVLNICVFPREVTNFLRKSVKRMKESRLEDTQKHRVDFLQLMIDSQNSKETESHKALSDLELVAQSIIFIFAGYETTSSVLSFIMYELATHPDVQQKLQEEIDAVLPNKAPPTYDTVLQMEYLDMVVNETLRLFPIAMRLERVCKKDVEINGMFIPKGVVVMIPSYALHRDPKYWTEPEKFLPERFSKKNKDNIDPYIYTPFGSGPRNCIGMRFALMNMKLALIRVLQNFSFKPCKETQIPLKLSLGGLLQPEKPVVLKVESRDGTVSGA
Assay: not given
Regarding `O=c1c(-c2cccs2)nc2cnc(Nc3ccccc3)nc2n1C[C@H]1CCCO1`, the AC50 is 10 µM (inconclusive). Still for that read-out and setting: the figure for `O=C(CNS(=O)(=O)c1ccc(Br)s1)N1CCC2(CC1)OCCO2` is 25.1 µM (inconclusive).
